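Results reflect a 48-hour exposure of cells in 96-well plates to compound at five concentrations. The concentration for full growth arrest is given as TGI.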
Key:
Experiment in all cases: NCI tumour cell line growth inhibition, 48 h
SW-620 colon = tested on: SW-620 colon
OVCAR-5 ovarian = tested on: OVCAR-5 ovarian
ACHN renal = tested on: ACHN renal
NCI-H23 lung = tested on: NCI-H23 lung
MDA-MB-231 breast = tested on: MDA-MB-231 breast
OVCAR-8 ovarian = tested on: OVCAR-8 ovarian
HCT-15 colon = tested on: HCT-15 colon
SNB-75 CNS = tested on: SNB-75 CNS
SK-MEL-5 melanoma = tested on: SK-MEL-5 melanoma
MCF7 breast = tested on: MCF7 breast
RPMI-8226 leukemia = tested on: RPMI-8226 leukemia
SN12C renal = tested on: SN12C renal
HT29 colon = tested on: HT29 colon
OVCAR-4 ovarian = tested on: OVCAR-4 ovarian
786-0 renal = tested on: 786-0 renal
MDA-N = tested on: MDA-N
MOLT-4 leukemia = tested on: MOLT-4 leukemia
HOP-92 NSCLC = tested on: HOP-92 NSCLC
UO-31 renal = tested on: UO-31 renal

Compound	TGI (SW-620 colon)	TGI (OVCAR-5 ovarian)	TGI (ACHN renal)	TGI (NCI-H23 lung)	TGI (MDA-MB-231 breast)	TGI (OVCAR-8 ovarian)	TGI (HCT-15 colon)	TGI (SNB-75 CNS)	TGI (SK-MEL-5 melanoma)	TGI (MCF7 breast)	TGI (RPMI-8226 leukemia)	TGI (SN12C renal)	TGI (HT29 colon)	TGI (OVCAR-4 ovarian)	TGI (786-0 renal)	TGI (MDA-N)	TGI (MOLT-4 leukemia)	TGI (HOP-92 NSCLC)	TGI (UO-31 renal)
CC(=O)c1sc2c(c1OC(=O)c1cccs1)c(=O)n(-c1ccccc1)c(=S)n2-c1ccccc1	45.9 µM	13.2 µM	11.1 µM	40.9 µM	32.2 µM	21.1 µM	36.5 µM	68.8 µM	25.8 µM	56.4 µM	20.3 µM	15.1 µM	11.6 µM	38.8 µM	15.5 µM	19.2 µM	60.8 µM	22.1 µM	
COC1=C(Br)[C@H](O)[C@@]2(C=C1Br)CC(C(=O)NCCCCCN=C(N)N)=NO2	> 10 µM	> 10 µM	> 10 µM	> 10 µM	> 10 µM	> 10 µM	> 10 µM	> 10 µM	> 10 µM	> 10 µM	> 10 µM	> 10 µM	> 10 µM	> 10 µM	> 10 µM	> 10 µM	> 10 µM		> 10 µM
C[C@]12CCC(=O)C=C1CC[C@@H]1C2CC[C@]2(C)c3nn(-c4ccc(F)cc4)nc3CC12 (stereo not given in full)	> 100 µM	> 100 µM	> 100 µM	> 100 µM	> 100 µM	> 100 µM		> 100 µM	> 100 µM	> 100 µM		> 100 µM	> 100 µM	> 100 µM	> 100 µM	> 100 µM	> 100 µM	> 100 µM	> 100 µM
CN(C)C1=Nc2ccccc2C(=S)N2CSCC12 (stereo not given)	> 100 µM	> 100 µM	> 100 µM		> 100 µM	> 100 µM	> 100 µM	> 100 µM	> 100 µM	> 100 µM	> 100 µM	> 100 µM	> 100 µM	> 100 µM	62.2 µM	> 100 µM	54.1 µM		> 100 µM
N#Cc1c(-c2ccccc2)[nH]c2ccccc2c1=O	> 100 µM	> 100 µM	> 100 µM		> 100 µM	> 100 µM	> 100 µM	38.3 µM	> 100 µM	> 100 µM		> 100 µM	> 100 µM	> 100 µM	> 100 µM	> 100 µM	> 100 µM	> 100 µM	
CNC(=S)N/N=C(C)\C(=N/NC(=S)NC)c1ccccc1		> 100 µM	> 100 µM	> 100 µM	> 100 µM		> 100 µM	> 100 µM	> 100 µM	> 100 µM					> 100 µM	> 100 µM			> 100 µM
CCOC(=O)C1(C(=O)OCC)CN(CC)CN(c2ccccc2)C1	> 100 µM	34.9 µM	35.8 µM	39 µM		47.4 µM	39 µM	39.3 µM	> 100 µM	35.1 µM	45 µM	> 100 µM	37.8 µM	49.1 µM	35.2 µM	87.9 µM	40.4 µM	33.3 µM	46.6 µM
Cn1ccc(C(=O)NCCOCCNC(=O)c2ccn(C)c(=O)c2O)c(O)c1=O	> 100 µM		> 100 µM	> 100 µM	> 100 µM	> 100 µM	> 100 µM		> 100 µM		> 100 µM	> 100 µM	> 100 µM	> 100 µM	> 100 µM	> 100 µM		> 100 µM	> 100 µM
N#CSc1nc[nH]c1C(N)=O	> 100 µM	> 100 µM	> 100 µM	> 100 µM	> 100 µM	> 100 µM	> 100 µM	> 100 µM	> 100 µM	> 100 µM	44.7 µM	90 µM	> 100 µM	> 100 µM	98.8 µM	> 100 µM		> 100 µM	> 100 µM
CC1=C(Br)C(Br)=C(C)S1=O	> 100 µM	37.4 µM	90.9 µM	> 100 µM	61.5 µM	> 100 µM	> 100 µM		22.1 µM	> 100 µM	24 µM	30.6 µM	45.4 µM	> 100 µM	55.9 µM	28.7 µM	33.4 µM	> 100 µM	39.3 µM
CC12CCC(C(=O)OC1=O)C2(C)C (stereo not given)	> 100 µM	> 100 µM	> 100 µM	> 100 µM	> 100 µM	> 100 µM	> 100 µM	> 100 µM		> 100 µM	> 100 µM	> 100 µM	> 100 µM	> 100 µM	> 100 µM	> 100 µM	> 100 µM		> 100 µM
CC1=NC(=Cc2ccc(O)cc2)C(=O)N1n1c(-c2ccccc2)nc2ccccc2c1=O	> 100 µM		> 100 µM	> 100 µM	> 100 µM	> 100 µM	> 100 µM	> 100 µM	> 100 µM	> 100 µM	> 100 µM	> 100 µM	> 100 µM		> 100 µM	> 100 µM	> 100 µM		> 100 µM
O=C1c2cc3c(cc2CC12Cc1cc4c(cc1C2=O)CCC4)CCCC3 (stereo not given)	> 100 µM	> 100 µM	> 100 µM	> 100 µM	> 100 µM	> 100 µM	> 100 µM	> 100 µM	> 100 µM	> 100 µM	> 100 µM		> 100 µM	> 100 µM	> 100 µM	> 100 µM	> 100 µM	> 100 µM	> 100 µM
CC(C)CC1[C@@H](OCc2ccccc2)COS(=O)N1Cc1ccccc1 (stereo not given in full)	> 100 µM	> 100 µM	96.2 µM	> 100 µM	> 100 µM	> 100 µM	> 100 µM	70.7 µM	> 100 µM	> 100 µM	51 µM	> 100 µM	40.2 µM	> 100 µM	> 100 µM	> 100 µM	> 100 µM		> 100 µM
CCN(CC)CCn1nc(N)c2nc3cc(Cl)ccc3nc21	> 100 µM	> 100 µM	> 100 µM	> 100 µM	> 100 µM	> 100 µM	> 100 µM		74.1 µM	> 100 µM	> 100 µM	> 100 µM	> 100 µM	> 100 µM	> 100 µM	> 100 µM	> 100 µM	> 100 µM	> 100 µM
Cc1cccc2c1[C@]13OC(C)[C@]4(C)CC5OC(=O)[C@@]1(C)[C@@H]5[C@]34C(=O)O2 (stereo not given in full)	> 100 µM	> 100 µM	> 100 µM	> 100 µM	> 100 µM	> 100 µM	> 100 µM	> 100 µM	> 100 µM	> 100 µM	> 100 µM	> 100 µM	> 100 µM		> 100 µM	> 100 µM	> 100 µM		> 100 µM
N#CC1Nc2ccccc2[C@@H](O)C1O (stereo not given in full)	> 100 µM	> 100 µM	> 100 µM	> 100 µM	> 100 µM	> 100 µM	> 100 µM	> 100 µM	> 100 µM	> 100 µM	> 100 µM	> 100 µM	> 100 µM	> 100 µM	> 100 µM	> 100 µM	> 100 µM	> 100 µM	
Cc1cccc2c1Oc1cc(Cl)ccc1C2NC(=O)CCN1CCOCC1 (stereo not given)	> 100 µM	> 100 µM		> 100 µM	> 100 µM	> 100 µM	> 100 µM	> 100 µM	> 100 µM	> 100 µM		> 100 µM	> 100 µM	> 100 µM	> 100 µM	> 100 µM	> 100 µM	95.2 µM	> 100 µM
COc1cccc(CCn2c(N)c(-c3ccccc3)c3ccc([N+](=O)[O-])cc3c2=O)c1	> 85.6 µM	46.9 µM	15 µM	8.47 µM	29.6 µM	4.45 µM	27.9 µM	11.1 µM	19.3 µM	12.7 µM	5 µM	1.53 µM	27.4 µM		19.4 µM	43.7 µM	49.5 µM	31.2 µM	27.2 µM
O=C(O)c1ccc(NNc2cc(=O)[nH]c(=O)[nH]2)cc1	> 100 µM	> 100 µM	> 100 µM	> 100 µM	> 100 µM	> 100 µM	> 100 µM	> 100 µM	> 100 µM	> 100 µM	> 100 µM	> 100 µM	> 100 µM	> 100 µM	> 100 µM	> 100 µM	> 100 µM		> 100 µM
O=C(O)c1nc(-c2ccccn2)c(-c2ccccn2)nc1C(=O)O	18.8 µM	18.3 µM	7.35 µM	23.6 µM	30.5 µM	21.2 µM	> 42.5 µM	11.6 µM	8.53 µM		> 100 µM	24.6 µM	8.54 µM	12.5 µM	13.2 µM	29.2 µM	> 28.3 µM	26.9 µM	8.15 µM
CC1(C)c2ccccc2C(=O)C12CCC(=O)CC2	> 100 µM	> 100 µM	> 100 µM	> 100 µM	> 100 µM	> 100 µM	> 100 µM	> 100 µM		> 100 µM		> 100 µM	> 100 µM	> 100 µM	> 100 µM	> 100 µM	> 100 µM		> 100 µM
COc1ccc2c(c1C)C(=O)C(O)(CC=C(C)C)O2 (stereo not given)	> 100 µM	> 100 µM	> 100 µM	> 100 µM	> 100 µM	> 100 µM	> 100 µM	> 100 µM	> 100 µM	> 100 µM	> 100 µM	> 100 µM	> 100 µM		> 100 µM	> 100 µM	> 100 µM		> 100 µM
CC(=O)N(C(=O)CC(=O)N/N=C\c1ccc(Br)c(N(CCC#N)CCC#N)c1)c1ccc(Cl)cc1	> 100 µM	55.9 µM	> 100 µM	> 100 µM	> 100 µM	> 100 µM	> 100 µM	> 100 µM		> 100 µM	> 100 µM	> 100 µM			> 100 µM	> 100 µM	> 100 µM	> 100 µM	> 100 µM
C=CCN1C[C@H](C)N([C@H](c2ccc(C(=O)N(CC)CCO)cc2)c2cccc(OC)c2)C[C@H]1C	> 100 µM	> 100 µM	> 100 µM	> 100 µM	> 100 µM	> 100 µM	> 100 µM		> 100 µM	> 100 µM	> 100 µM	> 100 µM	> 100 µM	> 100 µM	> 100 µM	> 100 µM	> 100 µM	> 100 µM	> 100 µM
CCC1OC2C(CC=C(C)C)=C3OC(C)(O)C(C)(CC)C(OC(=O)c4ccccc4)C3=C3OC(=O)C=C1C32 (stereo not given)	> 100 µM	> 100 µM	> 100 µM	> 100 µM	49.1 µM	> 100 µM	> 100 µM	> 100 µM	43.7 µM	> 100 µM	> 100 µM	79 µM	> 100 µM		> 100 µM	44.4 µM	> 100 µM	> 100 µM	> 100 µM
CCN1c2nc3ccccc3nc2N(CC)c2nc3ccccc3nc21	> 100 µM	> 100 µM	> 100 µM	> 100 µM	> 100 µM	> 100 µM	> 100 µM		> 100 µM	> 100 µM	> 100 µM	> 100 µM	> 100 µM		> 100 µM	> 100 µM	> 100 µM		> 100 µM

Source: PubChem BioAssay (NCI)
